Series [1] has as its system AI-2 synthesis. To be noted: 100 μg/mL; cited from earlier work.
The subject of a further series is E. coli biofilm. Briefly: E. coli biofilm formation on stainless steel surface. The format is cell-based. Particulars: 60 μg/mL, non-toxic concentration.
Another series has as its system E. coli. In words: E. coli cell growth (toxicity). The format is cell-based. To be noted: 60 μg/mL.
In series [2] the test system is AI-2 synthesis. In words: AI-2 synthesis in E. coli, bioluminescence assay with reporter strain Vibrio harveyi BB 170. Particulars: 60 μg/mL. The format is cell-based. On the procedure: Biofilm formation relies on bacteria's secretion and sensing (quorum sensing) of signal molecules (called auto-inducer). […] Furanone #8 and 9 (60 μg/mL) inhibited AI-2 synthesis in E. coli 12.5- and 3.5-fold. […] 96: p. 1639-1644).

Take `CCCCC1=C(Br)/C(=C\Br)OC1=O` [furanone #1]: in the series on AI-2 synthesis [1], the “inhibition of AI-2 synthesis” value was 2 fold.
For `CC1=CC(=C(Br)Br)OC1=O` [furanone #9], the “repression of E. coli biofilm formation, % of the surface coverage” value in the series on E. coli biofilm came to 86%. Also, the “E. coli cell growth” value in the series with E. coli is “cell growth not affected”. Further, the “inhibition of AI-2 synthesis in E. coli” value in the series with AI-2 synthesis [2] came out at 3.5 fold.
Regarding `O=C1O/C(=C/Br)C(Br)=C1CBr` [furanone #10], the “repression of E. coli biofilm formation, % of the surface coverage” value with E. coli biofilm stood at 91%. Besides, the “E. coli cell growth” value with E. coli was “cell growth not affected”.

(Values after patent US9150788B2, “Non-amphiphile-based water-in-water emulsion and uses thereof” (Syracuse University, priority 2007, dated 2015).)
